Measured values as given in patent publication US9253983B2, “Triazole compound and use thereof” (KUREHA CORPORATION, priority 2011, dated 2016).

Key:
Phaeosphaeria nodorum = assay: Test 1 for antifungal effect, plate medium: P.n; format: cell-based; conditions: PDA plate medium
Procedure: (§1) Compound (1-1a) or Compound (1-2a) was dissolved in dimethyl sulfoxide, and the resulting solution was added to a PDA medium (potato dextrose-agar medium) at about 60° C. The medium and the solution were mixed thoroughly in a conical flask, poured into a petri dish, and allowed to solidify. In this way, a plate medium containing Compound (1-1a) or Compound (1-2a) at a certain concentration was prepared.
(§2) Meanwhile, test microorganisms cultured on a plate medium in advance were cut out with the use of a cork borer 4 mm in diameter, and were inoculated onto the compound-containing plate medium. After the inoculation, the microorganisms were cultured at their optimum growth temperatures (for example, refer to LIST OF CULTURES 1996 microorganisms 10th edition, Institute for Fermentation (foundation)) for 1 day to 7 days, and their growth was determined by measuring the diameter of their flora. The extent of growth of the microorganisms on the compound-containing plate medium was compared with that of microorganisms on a plate medium where no compound was added, and mycelial growth inhibition rate was calculated by the following equation: R=100(dc−dt)/dc where R is mycelial growth inhibition rate (%), dc is the flora diameter in untreated plate, and dt is the flora diameter in plate treated with the compound.
(§3) A larger antifungal index indicates a better antifungal effect.

Botrytis cinerea = assay: Test 1 for antifungal effect, plate medium: B.c; format: cell-based; conditions: PDA plate medium
Procedure: as §1, §2, §3

Fusarium oxysporum = assay: Test 2 for antifungal effect, plate medium: F.c; format: cell-based; conditions: PDA plate medium
Procedure: as §1, with “(1-1b)” for “(1-1a)”, “(1-2b)” for “(1-2a)”
Meanwhile, test microorganisms cultured on a plate medium in advance were cut out with the use of a cork borer 4 mm in diameter, and were inoculated onto the compound-containing plate medium. After the inoculation, the pathogens were cultured at their optimum growth temperatures (for example, refer to LIST OF CULTURES 1996 microorganisms 10th edition, Institute for Fermentation (foundation)) for 1 day to 7 days, and their growth was determined by measuring the diameter of their flora. The extent of growth of the pathogens on the compound-containing plate medium was compared with that of pathogens on a plate medium where no compound was added, and mycelial growth inhibition rate was calculated as in Experiment Example 10. Note that, in Experiment Example 11, controls used in the antifungal effect tests are Compound (1-1a) and Compound (1-2a) instead of Compound (1-1b) and Compound (1-2b), respectively.
The results were rated on a 1-to-5 scale as in Experiment Example 10.

wheat [1] = assay: Growth inhibition (adverse effects) of seed treatment on wheat seeds; format: in vivo; conditions: wheat, 20 days after sowing
Procedure: A pot experiment was performed to evaluate the growth inhibition (adverse effects) caused by the seed treatment. Compound (1-1a) and Compound (1-2a), each of which was dissolved in DMSO to make up such a concentration that the seeds would be treated in treatment amount of 2 g to 200 g ai/100 kg seeds, were each applied to wheat seeds in a vial, and thereafter 8 wheat seeds were sowed in an 80-cm^2 pot. The pot was kept in a greenhouse with water supplied to its bottom. 20 days after the sowing, a growth measure of wheat was evaluated. A growth inhibition index was calculated based on the criteria shown by Table 10. In Table 10, a smaller growth inhibition index indicates a lesser adverse effect of growth inhibition caused by the treatment with the use of a plant disease controlling agent.

Glomerella cingurata = assay: Test 1 for antifungal effect, plate medium: G.c; format: cell-based; conditions: PDA plate medium
Procedure: as §1, §2, §3

Puccinia recondita = assay: Controlling effect on wheat brown rust (leaf rust) by foliage spray treatment (Tests 1 and 2); format: in vivo; conditions: foliage spray 0.8 mg/L, 1,000 L/ha, 11 days after inoculation
Procedure: The wheat plants had been grown in square plastic pots (6 cm×6 cm). The suspensions were left to dry, and inoculated with spores of Puccinia recondita (adjusted at 200 spores per field of vision, Gramin S was added at 60 ppm) by spraying, and kept at 25° C. in a high humidity environment for 48 hours. After that, the plants were kept in a greenhouse. 11 days after the inoculation, the lesion degree of the wheat leaf rust was examined in accordance with the criteria shown in Table 4, and the protective values were calculated by the following equation. Protective value (%)=(1−Average lesion degree in sprayed plot/Average lesion degree in unsprayed plot)×100
The wheat plants had been grown in square plastic pots (6 cm×6 cm). The leaves were air-dried, and inoculated with spores of Puccinia recondita (adjusted at 200 spores per field of vision, Gramin S was added at 60 ppm) by spraying, and kept at 25° C. in a high humidity environment for 48 hours. After that, the plants were kept in a greenhouse. 11 days after the inoculation, the lesion degree of the wheat leaf rust was examined, and the protective values were calculated as were in Experiment Example 2.

Gaeumannomyces graminis = assay: Test 1 for antifungal effect, plate medium: G.g; format: cell-based; conditions: PDA plate medium
Procedure: as §1, §2, §3

wheat [2] = assay: Necrosis (adverse effects) of seed treatment on wheat seeds; format: in vivo; conditions: 20 days after sowing
Procedure: A pot experiment was performed to evaluate necrosis (adverse effects) caused by the seed treatment. Compound (1-1a) and Compound (1-2a), each which was dissolved in DMSO to make up such a concentration that the seeds would be treated in treatment amount of 2 g to 200 g ai/100 kg seeds, were each applied to wheat seeds in a vial, and thereafter 8 wheat seeds were sowed in an 80-cm^2 pot. The pot was kept in a greenhouse with water supplied to its bottom. 20 days after the sowing, an extent of necrosis (percentage of necrotic surface area) of wheat was evaluated. A necrosis index was derived from the percentage of the necrotic surface area, based on the criteria shown by Table 13. In Table 13, a smaller necrosis index indicates a lesser adverse effect of necrosis caused by the treatment with the use of a plant disease controlling agent.

[3] = treatment amount 2 g ai/100 kg seeds
[4] = treatment amount 20 g ai/100 kg seeds
[5] = treatment amount 200 g ai/100 kg seeds

CC1(CCl)CCC(Cc2ccc(Cl)cc2)C1(O)Cn1cncn1 (single isomer, unassigned) [Compound (1-1a), (1,2-cis, 1,5-cis)-5-(4-chlorobenzyl)-2-chloromethyl-2-methyl-1-(1H-1,2,4-triazole-1-ylmethyl)cyclopentanol]
Antifungal index (mycelial growth inhibition rate) (Phaeosphaeria nodorum; 0.16 mg/L): 2 (Less than 70% but not less than 60%) | Antifungal index (mycelial growth inhibition rate) (Phaeosphaeria nodorum; 0.31 mg/L): 3 (Less than 80% but not less than 70%) | Antifungal index (mycelial growth inhibition rate) (Phaeosphaeria nodorum; 0.63 mg/L): 5 (90% or greater) | Antifungal index (mycelial growth inhibition rate) (Phaeosphaeria nodorum; 1.25 mg/L): 5 (90% or greater) | Antifungal index (mycelial growth inhibition rate) (Phaeosphaeria nodorum; 2.50 mg/L): 5 (90% or greater) | Antifungal index (mycelial growth inhibition rate) (Botrytis cinerea; 0.16 mg/L): 3 (Less than 80% but not less than 70%) | Antifungal index (mycelial growth inhibition rate) (Botrytis cinerea; 0.31 mg/L): 5 (90% or greater) | Antifungal index (mycelial growth inhibition rate) (Botrytis cinerea; 0.63 mg/L): 5 (90% or greater) | Antifungal index (mycelial growth inhibition rate) (Botrytis cinerea; 1.25 mg/L): 5 (90% or greater) | Antifungal index (mycelial growth inhibition rate) (Botrytis cinerea; 2.50 mg/L): 5 (90% or greater) | Antifungal index (mycelial growth inhibition rate) (Fusarium oxysporum; 0.04 mg/L): 1 (Less than 60%) | Antifungal index (mycelial growth inhibition rate) (Fusarium oxysporum; 0.08 mg/L): 3 (Less than 80% but not less than 70%) | Antifungal index (mycelial growth inhibition rate) (Fusarium oxysporum; 0.16 mg/L): 4 (Less than 90% but not less than 80%) | Antifungal index (mycelial growth inhibition rate) (Fusarium oxysporum; 0.31 mg/L): 4 (Less than 90% but not less than 80%) | Antifungal index (mycelial growth inhibition rate) (Fusarium oxysporum; 0.63 mg/L): 5 (90% or greater) | Antifungal index (mycelial growth inhibition rate) (Fusarium oxysporum; 1.25 mg/L): 5 (90% or greater) | Growth inhibition index (wheat [1]; [3]): 0 (50% or more) | Growth inhibition index (wheat [1]; [4]): 0 (50% or more) | Growth inhibition index (wheat [1]; [5]): 0 (50% or more) | Antifungal index (mycelial growth inhibition rate) (Glomerella cingurata; 0.16 mg/L): 5 (90% or greater) | Antifungal index (mycelial growth inhibition rate) (Glomerella cingurata; 0.31 mg/L): 5 (90% or greater) | Antifungal index (mycelial growth inhibition rate) (Glomerella cingurata; 0.63 mg/L): 5 (90% or greater) | Antifungal index (mycelial growth inhibition rate) (Glomerella cingurata; 1.25 mg/L): 5 (90% or greater) | Antifungal index (mycelial growth inhibition rate) (Glomerella cingurata; 2.50 mg/L): 5 (90% or greater) | Protective value (%) (Puccinia recondita): 95% | Antifungal index (mycelial growth inhibition rate) (Gaeumannomyces graminis; 0.16 mg/L): 3 (Less than 80% but not less than 70%) | Antifungal index (mycelial growth inhibition rate) (Gaeumannomyces graminis; 0.31 mg/L): 5 (90% or greater) | Antifungal index (mycelial growth inhibition rate) (Gaeumannomyces graminis; 0.63 mg/L): 5 (90% or greater) | Antifungal index (mycelial growth inhibition rate) (Gaeumannomyces graminis; 1.25 mg/L): 5 (90% or greater) | Antifungal index (mycelial growth inhibition rate) (Gaeumannomyces graminis; 2.50 mg/L): 5 (90% or greater) | Necrosis index (wheat [2]; [3]): 0 (Less than 1%) | Necrosis index (wheat [2]; [4]): 0 (Less than 1%) | Necrosis index (wheat [2]; [5]): 0 (Less than 1%)

CC1(CCl)CCC(Cc2ccc(F)cc2)C1(O)Cn1cncn1 (single isomer, unassigned) [Compound (1-2a), (1,2-cis, 1,5-cis)-5-(4-fluorobenzyl)-2-chloromethyl-2-methyl-1-(1H-1,2,4-triazole-1-ylmethyl)cyclopentanol]
Antifungal index (mycelial growth inhibition rate) (Phaeosphaeria nodorum; 0.16 mg/L): 1 (Less than 60%) | Antifungal index (mycelial growth inhibition rate) (Phaeosphaeria nodorum; 0.31 mg/L): 2 (Less than 70% but not less than 60%) | Antifungal index (mycelial growth inhibition rate) (Phaeosphaeria nodorum; 0.63 mg/L): 5 (90% or greater) | Antifungal index (mycelial growth inhibition rate) (Phaeosphaeria nodorum; 1.25 mg/L): 5 (90% or greater) | Antifungal index (mycelial growth inhibition rate) (Phaeosphaeria nodorum; 2.50 mg/L): 5 (90% or greater) | Antifungal index (mycelial growth inhibition rate) (Botrytis cinerea; 0.16 mg/L): 3 (Less than 80% but not less than 70%) | Antifungal index (mycelial growth inhibition rate) (Botrytis cinerea; 0.31 mg/L): 5 (90% or greater) | Antifungal index (mycelial growth inhibition rate) (Botrytis cinerea; 0.63 mg/L): 5 (90% or greater) | Antifungal index (mycelial growth inhibition rate) (Botrytis cinerea; 1.25 mg/L): 5 (90% or greater) | Antifungal index (mycelial growth inhibition rate) (Botrytis cinerea; 2.50 mg/L): 5 (90% or greater) | Antifungal index (mycelial growth inhibition rate) (Fusarium oxysporum; 0.04 mg/L): 1 (Less than 60%) | Antifungal index (mycelial growth inhibition rate) (Fusarium oxysporum; 0.08 mg/L): 1 (Less than 60%) | Antifungal index (mycelial growth inhibition rate) (Fusarium oxysporum; 0.16 mg/L): 2 (Less than 70% but not less than 60%) | Antifungal index (mycelial growth inhibition rate) (Fusarium oxysporum; 0.31 mg/L): 3 (Less than 80% but not less than 70%) | Antifungal index (mycelial growth inhibition rate) (Fusarium oxysporum; 0.63 mg/L): 4 (Less than 90% but not less than 80%) | Antifungal index (mycelial growth inhibition rate) (Fusarium oxysporum; 1.25 mg/L): 5 (90% or greater) | Growth inhibition index (wheat [1]; [3]): 0 (50% or more) | Growth inhibition index (wheat [1]; [4]): 0 (50% or more) | Growth inhibition index (wheat [1]; [5]): 2 (Less than 40% but 30% or more) | Antifungal index (mycelial growth inhibition rate) (Glomerella cingurata; 0.16 mg/L): 5 (90% or greater) | Antifungal index (mycelial growth inhibition rate) (Glomerella cingurata; 0.31 mg/L): 5 (90% or greater) | Antifungal index (mycelial growth inhibition rate) (Glomerella cingurata; 0.63 mg/L): 5 (90% or greater) | Antifungal index (mycelial growth inhibition rate) (Glomerella cingurata; 1.25 mg/L): 5 (90% or greater) | Antifungal index (mycelial growth inhibition rate) (Glomerella cingurata; 2.50 mg/L): 5 (90% or greater) | Protective value (%) (Puccinia recondita): 91% | Antifungal index (mycelial growth inhibition rate) (Gaeumannomyces graminis; 0.16 mg/L): 1 (Less than 60%) | Antifungal index (mycelial growth inhibition rate) (Gaeumannomyces graminis; 0.31 mg/L): 4 (Less than 90% but not less than 80%) | Antifungal index (mycelial growth inhibition rate) (Gaeumannomyces graminis; 0.63 mg/L): 5 (90% or greater) | Antifungal index (mycelial growth inhibition rate) (Gaeumannomyces graminis; 1.25 mg/L): 5 (90% or greater) | Antifungal index (mycelial growth inhibition rate) (Gaeumannomyces graminis; 2.50 mg/L): 5 (90% or greater) | Necrosis index (wheat [2]; [3]): 0 (Less than 1%) | Necrosis index (wheat [2]; [4]): 0 (Less than 1%) | Necrosis index (wheat [2]; [5]): 0 (Less than 1%)
